Here are results for 25 molecules from BindingDB's records for doi:10.7270/Q2TX3CTT (Broad Institute, 2010).

Some results are limits rather than exact numbers.

Sequence of Glycogen synthase kinase-3 beta (P49841 whole entry): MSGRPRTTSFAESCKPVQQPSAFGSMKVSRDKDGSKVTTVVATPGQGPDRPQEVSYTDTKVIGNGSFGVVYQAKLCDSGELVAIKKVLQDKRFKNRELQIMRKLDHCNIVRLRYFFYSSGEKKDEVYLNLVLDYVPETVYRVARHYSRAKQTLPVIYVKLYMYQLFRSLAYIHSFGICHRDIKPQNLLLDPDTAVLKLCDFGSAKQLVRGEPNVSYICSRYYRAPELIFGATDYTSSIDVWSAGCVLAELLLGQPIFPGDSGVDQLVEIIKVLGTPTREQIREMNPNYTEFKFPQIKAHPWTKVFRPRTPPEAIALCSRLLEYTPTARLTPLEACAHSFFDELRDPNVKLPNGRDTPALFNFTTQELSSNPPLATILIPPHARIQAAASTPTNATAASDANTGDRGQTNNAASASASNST

The test has as its target Glycogen synthase kinase-3 beta (Homo sapiens, UniProt P49841). In words: GSK3beta kinase inhibitor potency, dose response, biochemical, luminescence, cell-free homogeneous, retest (AID 434954).
As a reminder, the EC50 is the midpoint of the concentration-response curve. In turn, `COc1ccc(OC)c(C(=O)c2coc3ccc(OCC(=O)O)cc23)c1` [SMR000135205] returned an EC50 greater than 300 µM.

Molecule `CNC(=O)c1ccsc1NC(=O)C1CCN(S(=O)(=O)c2ccc(Cl)s2)CC1` [SMR000812824] returned an EC50 greater than 300 µM.

Turning to `CCC(C)Nc1nc(N)c([N+](=O)[O-])c(NC2CCCCC2)n1` (stereo not given) [SMR000540397], the concentration for a half-maximal effect (EC50) was 2.39 µM.

In the case of `Cc1ccnc(NC(=O)CCC(=O)N(CC(=O)NCCc2ccccc2)Cc2cccs2)c1` [N-(4-methylpyridin-2-yl)-N'-[2-oxidanylidene-2-(2-phenylethylamino)ethyl]-N'-(thiophen-2-ylmethyl)butanediamide], a half-maximal effect (EC50) was put at 21.3 µM.

As for `CCCn1c(SCC(=O)Nc2ccc(Cl)cn2)nnc1C1CC1`, the midpoint of the response, the EC50, lay at 24 µM.

The molecule `Cc1ccc(NC(=O)CSCc2ccc(F)cc2)cc1` [MLS000701707] displayed an EC50 greater than 300 µM.

`CC1CCN(Cc2c(C(=O)NN=Cc3ccccc3O)nnn2-c2nonc2N)CC1` [SMR000620333] yielded an EC50 of 0.7 µM.

For `O=NCc1ccc(OCc2ccccc2)c(Cl)c1` [3-chloro-4-phenylmethoxybenzaldehyde oxime], the EC50 was greater than 300 µM.

In turn, `COc1cccc(C(=O)c2sc(NC(C)C)nc2N)c1` [MLS000036929] registered an EC50 of 0.33 µM.

`Clc1ccc2c(c1)Nc1ccccc1CC2` [3-chloro-10,11-dihydro-5H-dibenzo[b,f]azepine] displayed a half-maximal effective concentration (EC50) greater than 300 µM.

Molecule `Cc1ccc(C)c(N2CCN(C(=O)Cn3ncc4c([nH]c5ccc(C)cc54)c3=O)CC2)c1` [3-[2-[4-(2,5-dimethylphenyl)piperazin-1-yl]-2-oxidanylidene-ethyl]-8-methyl-2H-pyridazino[4,5-b]indol-4-one] yielded an EC50 greater than 300 µM.

With `CC(=O)NCC1COc2ccccc2O1` (stereo not given) [N-(2,3-dihydro-1,4-benzodioxin-3-ylmethyl)ethanamide], the concentration giving a half-maximal response (EC50) is greater than 300 µM.

Molecule `CCSc1ccc2nnc(-c3cccc(F)c3)n2n1` [6-(ethylthio)-3-(3-fluorophenyl)-[1,2,4]triazolo[4,3-b]pyridazine] gave an EC50 of 18.7 µM.

As for `O=C(NCCc1ccccc1)c1cccc(Br)c1`, the EC50 is greater than 300 µM.

Consider `COc1ccc(C(=O)c2coc3ccc(O)c(CN4CCCC4)c23)cc1` [[5-hydroxy-4-(1-pyrrolidinylmethyl)-3-benzofuranyl]-(4-methoxyphenyl)methanone], for which the EC50 was greater than 300 µM.

As for `O=NCc1ccc(Oc2cccc(Cl)c2)c([N+](=O)[O-])c1` [MLS000694755], a half-maximal effect (EC50) was put at 38.2 µM.

`COc1ccc2oc3cc(C)[n+]([O-])c(-c4ccc(Br)cc4)c3c2c1` [MLS000588179] registered an EC50 greater than 300 µM.

Take `O=c1cc(-c2ccccc2)oc2cc(O)cc(O)c12` [5,7-dihydroxy-2-phenyl-4H-chromen-4-one]: the EC50 was greater than 300 µM.

In turn, `COc1cccc(C(=O)Nc2nc3ccc(S(C)(=O)=O)cc3s2)c1` [SMR000280607] displayed an EC50 greater than 300 µM.

As to `C[C@@H]1O[C@@H](OC[C@H]2O[C@@H](Oc3c(-c4ccc(O)c(O)c4)oc4cc(O)cc(O)c4c3=O)[C@H](O)[C@@H](O)[C@@H]2O)[C@H](O)[C@H](O)[C@H]1O` [3-Rhamnoglucosylquercetin], the EC50 was found to be 28 µM.

On to `O=C1N=C(Nc2ccccc2)SC1=Cc1cccnc1` [MLS000768418], for which the EC50 is greater than 300 µM.

With `Cc1nc(NCCCn2ccnc2)c2oc3ccccc3c2n1` [MLS000082652], the EC50 is greater than 300 µM.

`CCN(Cc1ccccc1)S(=O)(=O)c1ccc2c(c1)NC(=O)CC(=O)N2` [N-ethyl-2,4-dioxo-N-(phenylmethyl)-1,5-dihydro-1,5-benzodiazepine-7-sulfonamide]: a half-maximal effect (EC50) was put at 59.6 µM.

`CC1=C(C#N)C(=O)NC(=O)C1=NNc1ccc(Br)cc1C(=O)O` [MLS001213177] had an EC50 greater than 300 µM.

On to `CC(C)CC(CO)N1CCN(C(=O)c2ccc(Cl)c(Cl)c2)CCC1=O` (stereo not given) [1-(3,4-dichlorobenzoyl)-4-(1-hydroxy-4-methylpentan-2-yl)-1,4-diazepan-5-one], for which the EC50 is greater than 300 µM.
